Earlier results, collected in PMC9669016, “First-in-human phase Ia study of the PI3Kα inhibitor CYH33 in patients with solid tumors” (Nature Communications, 2022).
In brackets after ≈: the same amount, converted by molar mass. Like-named read-outs stand apart in the source and are kept apart here.

What was measured:
Beagle dogs = tested on: Beagle dogs; set-up: method as in Investigator's Brochure (IB) 12; settings: ref Investigator's Brochure (IB) 12; cited from earlier work
[1] = set-up: method as in Study Protocol CYH33-101 Table 2; settings: ref Study Protocol CYH33-101 Table 2, cited from earlier work
[2] = tested on: more than 300 other kinases, including PIKK family; set-up: method as in Investigator's Brochure (IB) 12; settings: ref Investigator's Brochure (IB) 12; cited from earlier work
[3] = tested on: EC063 esophageal cancer PDX; set-up: method as in Investigator's Brochure (IB) 12; settings: 12.5 mg/kg oral for 21 days; ref Investigator's Brochure (IB) 12; cited from earlier work
[4] = set-up: method as in Study Protocol CYH33-101 Table 2; settings: in H2O; ref Study Protocol CYH33-101 Table 2; cited from earlier work
[5] = tested on: KYSE410, KYSE510, EC104, EC063, EC074 xenograft models; set-up: method as in Investigator's Brochure (IB) 12; settings: ref Investigator's Brochure (IB) 12, cited from earlier work
[6] = set-up: method as in Investigator's Brochure (IB) 12; settings: ref Investigator's Brochure (IB) 12, cited from earlier work
[7] = tested on: KYSE410 human esophageal cancer xenograft; set-up: method as in Investigator's Brochure (IB) 12; settings: ref Investigator's Brochure (IB) 12, cited from earlier work; for inhibition rate (tumor growth): multiple doses
CYP2C8 = tested on: CYP2C8; set-up: method as in Investigator's Brochure (IB) 12; settings: up to 100 µM; ref Investigator's Brochure (IB) 12; cited from earlier work
SD rats = tested on: SD rats; set-up: method as in Investigator's Brochure (IB) 12; settings: long-term, ref Investigator's Brochure (IB) 12, cited from earlier work

In the case of `COC(=O)Nc1cc(C(F)(F)F)c(-c2nc(N3CCOCC3)c3cc(CN4CCN(S(C)(=O)=O)CC4)cn3n2)cn1` [CYH33, methyl (5-(6-((4-(methylsulfonyl)piperazin-1-yl)methyl)−4-morpholinopyrrolo[2,1-f][1,2,4]triazin-2-yl)−4-(trifluoromethyl)pyridin-2-yl)carbamate], the “maximum tolerated dose (MTD), acute toxicity” value (Beagle dogs) is given as > 120 mg/kg, the Solubility ([1]; in H2O) is given as 1210 µg/mL (≈ 2020 µM) and the “Solubility, pH dependent” value ([1]; pH <3) is given as “High solubility at pH <3”. For the same molecule, the “effects on more than 300 other kinases, including other PIKK family members” value [2] was “slight”, the T/C ratio [3] was “approximately 30%” and the pKa [4] was 4.86 ± 0.06. For the same molecule, the T/C% ([5]; 50 mg/kg dose group, subcutaneous xenograft tumor model) was < 20%, the “effective dose in nude mice” value ([5]; oral for 21 days) was 12.5 mg/kg and the “number of metabolites detected in vivo” value [6] was 14. For the same molecule, the urinary excretion [6] was “less than 1 % of the dose”, the “cumulative excretion of parent drug in feces” value ([6]; within 96 h after administration) was “approximately 24 % of the dose” and the T/C ratio ([7]; 12.5 mg/kg oral for 21 days) was “approximately 30%”. For the same molecule, the “inhibition rate (tumor growth)” value ([7]; 12.5 mg/kg) was > 67%, the “inhibition rate (tumor growth)” value ([7]; 25 mg/kg) was > 90% and the “inhibition rate (tumor growth)” value ([7]; 50 mg/kg) was > 95%. The “inhibition of CYP2C8” value (CYP2C8) was “did not inhibit”, the “highest non-severely toxic dose (HNSTD)” value (SD rats; female SD rats) was 3 mg/kg and the “highest non-severely toxic dose (HNSTD)” value (SD rats; male SD rats) was 8 mg/kg.
